Patent US8030336B2, “Nicotinamide-based kinase inhibitors” (YM Biosciences Australia Pty Ltd, priority 2002, dated 2011)

How the values were obtained:
Type in all cases: biochemical
abl = target: T1, abl (Homo sapiens, UniProt P00519); test: abl kinase assay (ELISA or Alphascreen); conditions: read-out: abl inhibition of enzyme activity
T1 sequence (P00519 242-493 limits assumed): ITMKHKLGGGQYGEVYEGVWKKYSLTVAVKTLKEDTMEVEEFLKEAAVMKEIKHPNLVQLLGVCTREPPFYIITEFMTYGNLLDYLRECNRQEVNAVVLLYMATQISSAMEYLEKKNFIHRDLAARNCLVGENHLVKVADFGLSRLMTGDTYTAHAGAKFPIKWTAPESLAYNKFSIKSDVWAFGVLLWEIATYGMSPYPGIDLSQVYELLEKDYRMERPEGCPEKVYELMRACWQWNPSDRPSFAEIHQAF
How it was run: (§1)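 PTK domain ~1.5 μg; 50 mM HEPES pH 7.5, 10 mM MgCl2, 150 mM NaCl; ATP 10 μM-1 mM; biotinylated peptide 5 μM final. Read-out: avidin-capture ELISA with PY20 or Alphascreen pTyr acceptor/streptavidin donor beads.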

fes = fes (Homo sapiens, UniProt P07332); test: fes kinase assay (ELISA or Alphascreen); conditions: read-out: fes inhibition of enzyme activity
How it was run: as §1

hck = hck (Homo sapiens, UniProt P08631); test: hck kinase assay (ELISA or Alphascreen); conditions: read-out: hck inhibition of enzyme activity
Description: (§2) Kinase assays were performed in a 96 well capture-based ELISA assay or in 384 well Optiplates (Packard) using an Alphascreen Protein Tyrosine Kinase kit. In either case using approximately 1.5 μg of affinity purified PTK domain in the presence of 50 mM HEPES, pH 7.5, 10 mM MgCl2, 150 mM NaCl and 10 μM-1 mM ATP. The biotinylated substrate biotin-EGPWLEEEEEAYGWMDF-NH2 (SEQ ID NO:9) (final concentration 5 μM) was used as substrate. In the ELISA assay tyrosine phosphorylation was quantitated following transfer to an avidin coated ELISA plate using peroxidase-linked anti-phosphotyrosine antibody PY20. In the Alphascreen assay, Alphascreen phosphotyrosine acceptor beads followed by streptavidin donor beads were added under subdued light. The ELISA plates were read on a BMG Fluorostar, the Alphascreen plates were read on a Packard Fusion Alpha. Inhibitors were added to the assays fifteen minutes prior to the addition of ATP. Inhibitors were added in aqueous […] concentrations never exceeding 1%.

Zap70 = target: T2, Zap70 (Homo sapiens, UniProt P43403); test: Zap70 kinase assay (ELISA or Alphascreen); conditions: read-out: Zap70 inhibition of enzyme activity
T2 sequence (P43403 338-600 limits assumed): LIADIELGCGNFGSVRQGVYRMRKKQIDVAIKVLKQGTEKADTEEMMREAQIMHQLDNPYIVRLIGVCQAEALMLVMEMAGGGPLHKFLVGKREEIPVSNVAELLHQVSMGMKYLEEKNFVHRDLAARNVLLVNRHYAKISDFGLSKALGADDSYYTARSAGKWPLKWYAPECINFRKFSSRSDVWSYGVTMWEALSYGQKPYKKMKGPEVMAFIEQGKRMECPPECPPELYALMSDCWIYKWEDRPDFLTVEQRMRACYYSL
How it was run: as §1

fms = target: T3, fms (Homo sapiens, UniProt P07333); test: fms kinase assay (ELISA or Alphascreen); conditions: read-out: fms inhibition of enzyme activity
T3 sequence (P07333 582-910 limits assumed): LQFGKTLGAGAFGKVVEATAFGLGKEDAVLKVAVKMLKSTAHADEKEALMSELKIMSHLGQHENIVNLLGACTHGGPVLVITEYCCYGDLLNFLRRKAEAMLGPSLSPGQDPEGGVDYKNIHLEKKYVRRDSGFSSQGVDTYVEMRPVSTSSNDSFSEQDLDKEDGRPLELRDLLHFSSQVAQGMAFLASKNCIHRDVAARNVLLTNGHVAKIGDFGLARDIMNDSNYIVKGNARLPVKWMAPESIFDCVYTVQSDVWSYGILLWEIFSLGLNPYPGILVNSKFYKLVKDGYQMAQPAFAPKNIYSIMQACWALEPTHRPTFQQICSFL
Description: as §2

human JAK2 = target: T4, human JAK2 (Homo sapiens, UniProt O60674); test: JAK2 kinase assay (ELISA or Alphascreen); conditions: read-out: Jak2 inhibition of enzyme activity
T4 construct: The kinase domain of human JAK2 was amplified from U937mRNA; His tag (from the pFastBac HTc vector) (N); made in house; host or cells: baculovirus; Sf9 for virus, High Five insect cells for production
How it was run: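 His-tagged human JAK2 kinase domain from baculovirus-infected insect cells, ~1.5 μg per assay, in 50 mM HEPES pH 7.5, 10 mM MgCl2, 150 mM NaCl, with 10 μM–1 mM ATP and 5 μM biotinylated peptide substrate. Phosphotyrosine detected by PY20 ELISA or AlphaScreen.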

human JAK3 = target: T5, human JAK3 (Homo sapiens, UniProt P52333); test: JAK3 kinase assay (ELISA or Alphascreen); conditions: read-out: Jak3 inhibition of enzyme activity
T5 construct: The kinase domain of human JAK3 was amplified from U937mRNA; His tag (from the pFastBac HTb vector) (N); made in house; host or cells: baculovirus; Sf9 for virus, High Five insect cells for production
How it was run: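 Read-out: anti-phosphotyrosine detection of a 5 μM biotin-peptide substrate, via PY20-peroxidase ELISA or Alphascreen beads. Enzyme was nickel-purified recombinant JAK3 kinase domain (~1.5 μg), with ATP at 10 μM-1 mM, pH 7.5 HEPES/MgCl2/NaCl.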

Sequence of fes (P07332 561-822 limits assumed, species assumed): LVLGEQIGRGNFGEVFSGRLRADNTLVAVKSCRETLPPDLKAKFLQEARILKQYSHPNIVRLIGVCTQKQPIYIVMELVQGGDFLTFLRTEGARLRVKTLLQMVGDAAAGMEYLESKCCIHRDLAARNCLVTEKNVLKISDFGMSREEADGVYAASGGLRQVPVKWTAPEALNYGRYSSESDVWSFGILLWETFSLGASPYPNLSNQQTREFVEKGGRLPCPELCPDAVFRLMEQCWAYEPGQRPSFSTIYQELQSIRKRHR
T5 sequence (P52333 822-1111 limits assumed): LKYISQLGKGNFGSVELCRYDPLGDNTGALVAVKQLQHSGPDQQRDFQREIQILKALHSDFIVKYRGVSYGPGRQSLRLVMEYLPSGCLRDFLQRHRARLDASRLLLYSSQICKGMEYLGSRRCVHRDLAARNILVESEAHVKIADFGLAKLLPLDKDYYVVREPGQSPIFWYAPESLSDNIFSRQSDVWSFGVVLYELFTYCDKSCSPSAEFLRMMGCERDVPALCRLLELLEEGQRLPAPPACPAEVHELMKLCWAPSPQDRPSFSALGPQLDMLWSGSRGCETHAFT
T4 sequence (O60674 849-1124 limits assumed): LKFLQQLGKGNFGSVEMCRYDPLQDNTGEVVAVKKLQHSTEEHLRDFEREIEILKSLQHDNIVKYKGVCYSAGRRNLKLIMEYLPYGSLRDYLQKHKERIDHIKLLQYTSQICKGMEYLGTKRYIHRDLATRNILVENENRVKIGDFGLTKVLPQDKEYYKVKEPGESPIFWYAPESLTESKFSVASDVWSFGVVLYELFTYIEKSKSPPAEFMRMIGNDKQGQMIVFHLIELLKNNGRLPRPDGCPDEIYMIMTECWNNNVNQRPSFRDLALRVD
Sequence of hck (P08631 262-515 limits assumed, species assumed): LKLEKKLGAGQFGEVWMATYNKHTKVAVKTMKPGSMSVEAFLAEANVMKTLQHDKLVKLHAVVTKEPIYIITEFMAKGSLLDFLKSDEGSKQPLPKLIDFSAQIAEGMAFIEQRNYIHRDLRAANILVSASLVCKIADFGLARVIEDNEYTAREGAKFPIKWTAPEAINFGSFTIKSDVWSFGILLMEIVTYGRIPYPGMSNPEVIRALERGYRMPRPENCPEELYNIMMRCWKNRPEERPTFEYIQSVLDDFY

Row | inhibition at 10 µM (abl) | inhibition at 10 µM (fes) | inhibition at 10 µM (hck) | inhibition at 10 µM (Zap70) | inhibition at 10 µM (fms) | inhibition at 10 µM (human JAK2) | inhibition at 10 µM (human JAK3) | SMILES
1 | < 50% | < 50% | < 50% | < 50% | < 50% |  |  | COc1ccc(NC(=O)c2cncc(-c3cc(OC)c(OC)c(OC)c3)c2)c(OC)c1
2 | < 50% | < 50% | < 50% | ≥ 50% | < 50% |  |  | COc1cc(-c2cncc(C(=O)NCCO)c2)cc(OC)c1OC
3 | < 50% | < 50% | < 50% | < 50% |  | < 50% | < 50% | COc1cc(-c2cncc(C(=O)NCCO)c2)ccc1O
4 | < 50% |  | < 50% | < 50% | < 50% | < 50% | < 50% | O=C(Nc1ccccc1)c1cncc(-c2ccc(O)cc2)c1
5 | < 50% | < 50% | ≥ 50% | < 50% | < 50% | < 50% |  | CC(C)NC(=O)c1cncc(-c2ccc(O)cc2)c1
6 | < 50% |  | ≥ 50% | < 50% | < 50% | < 50% | < 50% | Cc1ccc(C)c(NC(=O)c2cncc(-c3ccc(O)cc3)c2)c1
7 | < 50% |  | ≥ 50% | < 50% | < 50% | < 50% | < 50% | Cc1cc(-c2cncc(C(=O)Nc3ccccc3)c2)cc(C)c1O
8 | ≥ 50% |  | ≥ 50% | < 50% | ≥ 50% | < 50% | < 50% | Cc1ccccc1NC(=O)c1cncc(-c2cc(C)c(O)c(C)c2)c1
9 | < 50% | < 50% | < 50% | < 50% |  | < 50% | < 50% | COc1cc(-c2cncc(C(=O)Nc3ccccc3)c2)c(Cl)c(OC)c1OC
10 | < 50% | < 50% | < 50% | < 50% | < 50% | < 50% |  | COc1cc(-c2cncc(C(=O)NCc3ccncc3)c2)c(Cl)c(OC)c1OC
11 | < 50% |  | < 50% | < 50% | < 50% | < 50% | < 50% | COc1cc(-c2cncc(C(=O)NC(C)CCc3ccccc3)c2)c(Cl)c(OC)c1OC (stereo not drawn)
12 | < 50% | < 50% | < 50% |  | < 50% | < 50% | < 50% | O=C(NCc1ccc(N2CCOCC2)cc1)c1cncc(-c2ccc3c(c2)OCO3)c1
13 | < 50% |  | < 50% | < 50% | < 50% | < 50% | < 50% | Cc1cc(F)ccc1NC(=O)c1cncc(-c2ccc3c(c2)OCO3)c1
14 | < 50% | < 50% | < 50% | < 50% | < 50% | < 50% |  | COc1ccc(NC(=O)c2cncc(-c3cccs3)c2)c(OC)c1
15 | < 50% | < 50% | < 50% | < 50% | < 50% | < 50% |  | COc1cc(NC(=O)c2cncc(-c3cccs3)c2)cc(OC)c1OC
16 | < 50% |  | < 50% | < 50% | < 50% | < 50% | < 50% | C[C@H](NC(=O)c1cncc(-c2ccc(F)cc2)c1)c1ccccc1
17 | < 50% | < 50% | < 50% | < 50% | < 50% | < 50% |  | CC(C)C(CO)NC(=O)c1cncc(-c2ccc(F)cc2)c1 (stereo not drawn)
18 | < 50% |  | < 50% | < 50% | < 50% | < 50% | ≥ 50% | O=C(NCc1ccco1)c1cncc(-c2ccc(F)cc2)c1
19 | < 50% | < 50% | < 50% | < 50% | < 50% | < 50% |  | Cc1ccc(CNC(=O)c2cncc(-c3ccc(F)cc3)c2)cc1
20 | < 50% | < 50% | < 50% | < 50% | < 50% | < 50% |  | CN(Cc1ccccc1)C(=O)c1cncc(-c2ccc(F)cc2)c1
21 | < 50% |  | < 50% | < 50% | < 50% | < 50% | < 50% | COc1cc(NC(=O)c2cncc(-c3ccc(F)cc3)c2)cc(OC)c1OC
22 | < 50% | < 50% | < 50% | < 50% | < 50% | < 50% |  | COc1cccc(-c2cncc(C(=O)NC(C)CCc3ccccc3)c2)c1 (stereo not drawn)
23 | ≥ 50% |  | ≥ 50% | < 50% | ≥ 50% | < 50% | < 50% | COc1cc(-c2cncc(C(=O)Nc3cc(C)ccc3C)c2)ccc1O
24 | < 50% |  | < 50% | ≥ 50% | < 50% | < 50% | < 50% | C[C@@H](NC(=O)c1cncc(-c2ccncc2)c1)c1ccccc1
25 | < 50% | ≥ 50% | < 50% | < 50% | < 50% |  |  | O=C(NCc1ccc(F)cc1)c1cncc(-c2ccncc2)c1
26 | < 50% | < 50% | < 50% | < 50% | < 50% |  |  | O=C(NCc1ccc(F)cc1)c1cncc(-c2cccnc2)c1
27 | < 50% | < 50% | < 50% | < 50% | < 50% |  |  | Cc1cc(F)ccc1NC(=O)c1cncc(-c2ccncc2)c1
28 | < 50% | < 50% | < 50% | < 50% | < 50% |  |  | Cc1cc(F)ccc1NC(=O)c1cncc(-c2cccnc2)c1
